Read-outs that look alike come from different tables or passages of the source.
Key:
[1] = system: LTP; assay: LTP augmentation; conditions: LTP concentration 1 uM
[2] = target: T1, NMDA receptor (Rattus norvegicus, UniProt P35439); assay: [3H] MK-801 Binding Assay (MK-801 Glycine Site Binding Assay: Rat Cortex)
T1 construct: well washed rat cortical membranes (200 μg); from tissue; host or cells: rat cerebral cortex membranes
Procedure: Assays were conducted as described in Moskal et al. (Moskal, J. R., Kuo, A. G., Weiss, C., Wood, P. L., O'Connor Hanson, A., Kelso, S., Harris, R. B., Disterhoft, J. F., 2005. GLYX-13: a monoclonal antibody-derived peptide that acts as an N-methyl-D-aspartate receptor modulator. Neuropharmacology. 49, 1077-87) The potentiation of [^3H]MK-801 binding (5 nM; 22.5 Ci/mmol) to well washed rat cortical membranes (200 μg) was measured under non-equilibrium conditions (15 min @25° C.) in the presence of increasing concentrations of test compounds and 50 μM glutamate. Zero levels were determined in the absence of any glycine ligand and in the presence of 30 μM 5,7 DCKA. Maximal stimulation was measured in the presence of 1 mM glycine, and 50 μM glutamate was present in all samples. The facilitation of [^3H]MK-801 binding by tests compounds was calculated by using a 3 parameter log agonist vs. response equation (Graph pad Prism, USA) and potency (EC50, expressed in pM) and maximal activity (% maximal stimulation) were calculated for the test compound.

[3] = Porsolt floating time inhibition; type: in vivo; conditions: 1 hour post dose
[4] = Table 3, read-out: MK-801 Glycine Site Binding Assay: Rat Cortex EC50

EC50 [2, 4] [nM] | Molecule | LTP: LTP Augmentation (%) [1] [%] | Unified Activity Data: LTP Augmentation (Percent) [1] [%] | other results
– | C[C@@H](O)[C@@H](c1ncno1)N1CC2(CCCN2C(=O)OC(C)(C)C)C1=O (stereo partly drawn) [Compound C-15, tert-butyl 2-((1S,2R)-2-hydroxy-1-(1,2,4-oxadiazol-5-yl)propyl)-1-oxo-2,5-diazaspiro[3,4]octane-5-carboxylate] | – | 120 | Unified Activity Data: Porsolt Floating Time Inhibition (Percent) ([3]; 1 mg/kg PO): 86%
0.11 | CC(O)C(c1ncccn1)N1CC2(CCC(C)N2C(=O)OC(C)(C)C)C1=O (centres unmarked) [Compound C-19, tert-butyl 2-(2-hydroxy-1-(pyrimidin-2-yl)propyl)-6-methyl-1-oxo-2,5-diazaspiro[3,4]octane-5-carboxylate] | 110 | – | –
– | CC1N([C@@H](c2nnco2)[C@H](C)O)C(=O)C12CCCN2C(=O)OC(C)(C)C (stereo partly drawn) [Compound C-26, tert-butyl 2-((1R, 2S)-2-hydroxy-1-(1,3,4-oxadiazol-2-yl)propyl)-1-methyl-3-oxo-2,5-diazaspiro[3,4]octane-5-carboxylate] | 65 | – | –
0.135 | CC(O)C(c1ncccn1)N1C(=O)C2(CCCN2C(=O)OC(C)(C)C)C1C (centres unmarked) [Compound C-29, tert-butyl 2-(2-hydroxy-1-(pyrimidin-2-yl)propyl)-1-methyl-3-oxo-2,5-diazaspiro[3,4]octane-5-carboxylate] | 125 | – | –
– | CC(O)C(c1ncccn1)N1CC2(CCCN2)C1=O (centres unmarked) [Compound Y, 2-(2-hydroxy-1-(pyrimidin-2-yl)propyl)-2,5-diazaspiro[3.4]octan-1-one] | – | 140 | Unified Activity Data: Porsolt Floating Time Inhibition (Percent) ([3]; 3 mg/kg IV): 92%; EC50 ([2]; Table 2, read-out: MK-801 Glycine Site Binding Assay: Rat Cortex EC50): 0.288 nM; Emax ([2]; maximal stimulation measured with 1 mM glycine, 50 μM glutamate): 14%; EC50 ([2]; rat cortical membranes, 50 μM glutamate, read-out: potency (EC50) for potentiation of [3H]MK-801 binding): 0.288 nM

Molecule | EC50 [2, 4] [nM] | LTP: LTP Augmentation (%) [1] [%] | Unified Activity Data: LTP Augmentation (Percent) [1] [%] | other results
2-(2-hydroxy-1-(pyrimidin-2-yl)propyl)-3,6-dimethyl-2, 5-diazaspiro[3,4]octan-1-one [Compound C-33] | 0.00713 | 30 | – | –

Source: patent US9828384B2, “Spiro-lactam NMDA receptor modulators and uses thereof” (Aptinyx Inc., priority 2013, dated 2017)
